Test results from ChEMBL document CHEMBL5465560, “Selectivity Literature for EUbOPEN Chemogenomic Library” (2024).
Positions count from the first letter of the chain named.

Key:
Details in all cases: at 10 µM
[1] = test system: T1, Receptor-type tyrosine-protein kinase FLT3 (Homo sapiens), P36888 [D835Y]; experiment: (§1) Selectivity interaction (KinomeScan (DiscoverX)) EUB0000655a FLT3
T1 sequence (whole entry): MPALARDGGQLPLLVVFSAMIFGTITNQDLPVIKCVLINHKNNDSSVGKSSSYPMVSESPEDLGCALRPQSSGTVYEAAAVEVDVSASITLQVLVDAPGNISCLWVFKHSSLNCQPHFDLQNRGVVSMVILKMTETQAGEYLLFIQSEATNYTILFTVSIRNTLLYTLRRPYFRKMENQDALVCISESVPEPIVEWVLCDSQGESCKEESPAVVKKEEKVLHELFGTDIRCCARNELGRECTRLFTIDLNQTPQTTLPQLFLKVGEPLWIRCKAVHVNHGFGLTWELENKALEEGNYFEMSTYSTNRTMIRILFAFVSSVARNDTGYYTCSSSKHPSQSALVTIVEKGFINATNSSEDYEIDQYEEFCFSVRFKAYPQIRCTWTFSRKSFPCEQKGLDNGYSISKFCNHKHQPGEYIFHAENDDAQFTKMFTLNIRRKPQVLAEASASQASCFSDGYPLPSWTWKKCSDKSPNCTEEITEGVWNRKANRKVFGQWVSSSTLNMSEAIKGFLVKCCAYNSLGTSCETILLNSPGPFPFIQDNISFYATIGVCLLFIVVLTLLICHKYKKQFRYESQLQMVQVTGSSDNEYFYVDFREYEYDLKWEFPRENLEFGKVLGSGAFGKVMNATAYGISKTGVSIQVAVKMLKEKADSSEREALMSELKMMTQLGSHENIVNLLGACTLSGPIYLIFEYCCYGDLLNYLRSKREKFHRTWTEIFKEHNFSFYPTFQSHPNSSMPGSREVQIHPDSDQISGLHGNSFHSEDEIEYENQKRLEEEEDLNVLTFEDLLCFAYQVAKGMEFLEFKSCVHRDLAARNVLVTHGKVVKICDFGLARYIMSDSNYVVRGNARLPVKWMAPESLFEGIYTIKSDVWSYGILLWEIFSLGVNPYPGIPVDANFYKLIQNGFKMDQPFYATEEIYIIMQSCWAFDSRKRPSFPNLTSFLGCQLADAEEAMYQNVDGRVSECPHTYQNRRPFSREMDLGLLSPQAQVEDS

[2] = test system: T2, Receptor-type tyrosine-protein kinase FLT3 (Homo sapiens), P36888 [N841I]; experiment: as §1
T2 sequence (whole entry): T1 sequence (whole entry) with Y835D, N841I

[3] = test system: T3, Receptor-type tyrosine-protein kinase FLT3 (Homo sapiens), P36888 [R834Q]; experiment: as §1
T3 sequence (whole entry): T1 sequence (whole entry) with R834Q, Y835D

[4] = test system: Receptor-type tyrosine-protein kinase FLT3 (Homo sapiens), P36888 [UNDEFINED MUTATION]; experiment: as §1
[5] = target: STE20/SPS1-related proline-alanine-rich protein kinase (Homo sapiens) (UniProt Q9UEW8); experiment: Selectivity interaction (KinomeScan (DiscoverX)) EUB0000666a STK39

| Structure (SMILES) | % of control [1] | % of control [2] | % of control [3] | % of control [4] | % of control [5] |
| --- | --- | --- | --- | --- | --- |
| CN(C)CCOc1ccc(-c2nc(-c3ccncc3)c(-c3ccc4c(c3)CC/C4=N\O)[nH]2)cc1 | 64% | 81% | 100% | 78% | – |
| O=C(NOC[C@H](O)CO)c1ccc(F)c(F)c1Nc1ccc(I)cc1F | – | – | – | – | 96% |
